This note sets out measurements from US20230124087A1, “KV3 ENHANCERS FOR THE TREATMENT OF COGNITIVE DISORDERS” (Hoffmann-La Roche Inc., priority 2020, published 2023).

What is called EC50 is the concentration at which the effect is half-maximal.

Where two headings read alike, the source gives them in different places.

This test concerns the target T1, Kv3.1 (Homo sapiens, UniProt P48547).
T1 construct: expressed in transfected cells
T1 sequence (P48547 1-511): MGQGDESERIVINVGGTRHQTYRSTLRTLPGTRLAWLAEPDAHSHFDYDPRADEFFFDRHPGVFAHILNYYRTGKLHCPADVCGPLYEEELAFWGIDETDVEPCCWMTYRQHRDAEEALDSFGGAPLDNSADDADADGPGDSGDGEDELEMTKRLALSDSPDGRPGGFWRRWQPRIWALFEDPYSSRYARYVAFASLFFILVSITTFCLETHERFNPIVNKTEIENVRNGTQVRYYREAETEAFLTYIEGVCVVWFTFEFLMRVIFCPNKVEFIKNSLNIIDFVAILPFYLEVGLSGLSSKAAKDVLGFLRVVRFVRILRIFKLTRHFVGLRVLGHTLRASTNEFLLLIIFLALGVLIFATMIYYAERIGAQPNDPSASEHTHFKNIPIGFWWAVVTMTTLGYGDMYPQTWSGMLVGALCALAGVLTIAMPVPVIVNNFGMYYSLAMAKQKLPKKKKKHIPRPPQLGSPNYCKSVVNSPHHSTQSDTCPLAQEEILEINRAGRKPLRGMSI
Briefly: Kv3.1 automated patch clamp (Qube) cellular electrophysiology assay. Type of test: cell-based. From the text: In vitro, high-throughput cellular electrophysiology was employed to detect voltage-dependence of compounds in single concentration screening and IC50 determination for library and medicinal chemistry profiling compounds in 384 well plates.
HEK-293 cell lines stably expressing coding DNA for Kv3.1, 3.2, 3.3, and 3.4 were validated on an automated patch clamp (APC) platform, Qube from Sophion/Denmark. Cell cultures were maintained in DMEM cell growth media containing FBS and appropriate antibiotics at 37° C., 5% CO2 for a maximum of 20 passages. Intra- and extracellular (w. glucose) HEPES buffers containing various monovalent and divalent cations were adjusted to pH 7.2 and 7.4 respectively. Cells were harvested at 75% confluency and resuspended in extracellular buffer and added to wells. Negative pressure was applied to establish whole cell recording by APC.
Currents through activated channels were measured directly by APC by employing depolarization voltage steps. Baseline currents were established for the voltage-dependence protocols using a −80 mV holding potential and multiple test pulses at +10 mV or by 10 mV steps from −80 mV to +40 mV, respectively. Test compounds were added after baseline recordings followed by a 10 min incubation, and voltage-dependency protocol recordings. Data was corrected for baseline and leak currents (well based) and normalized for % potentiation (plate based). Two previously reported Kv3 positive modulators of varying potencies were used for run to run and plate to plate quality controls. A non-selective and potent positive modulator was used as a positive control. Percent potentiation was analyzed at −20 mV of the voltage-dependency protocol and voltage shift in channel activation was analyzed using the voltage step protocol from −80 mV to +40 mV. Selectivity was assessed against Kv3.2, Kv3.3, and Kv3.4 overexpressing cell lines using similar methods.
In general terms: In patch-clamp work, channel activity is measured electrically.

As for `COc1cc(Oc2ccc(-n3c(=O)[nH]c4cccnc43)cn2)ccc1C` [Example 33, 3-[6-(3-methoxy-4-methyl-phenoxy)-3-pyridyl]-1H-imidazo[4,5-b]pyridin-2-one], the EC50 is 3.4 µM.
Still for that read-out and setting: as for `COc1cc(Oc2ccc(-n3c(=O)[nH]c4ccccc43)cn2)ccc1C` [Example 34, 3-[6-(3-methoxy-4-methyl-phenoxy)-3-pyridyl]-1H-benzimidazol-2-one], the figure is 5.2 µM; as for `Cc1ccc(Oc2ccc(-n3c(=O)[nH]c4cccnc43)cn2)cc1F` [Example 35, 3-[6-(3-fluoro-4-methyl-phenoxy)-3-pyridyl]-1H-imidazo[4,5-b]pyridin-2-one], 3.6 µM.
For the molecule `Cc1ccc(Oc2ccc(-n3c(=O)[nH]c4cccnc43)cn2)c(F)c1` [Example 36, 3-[6-(2-fluoro-4-methyl-phenoxy)-3-pyridyl]-1H-imidazo[4,5-b]pyridin-2-one], the EC50 is 4.3 µM.
The same measure, in the same setting: as for `Cc1cc(C#N)ccc1Oc1ccc(-n2c(=O)[nH]c3cccnc32)cn1` [Example 37, 3-methyl-4-[[5-(2-oxo-1H-imidazo[4,5-b]pyridin-3-yl)-2-pyridyl]oxy]benzonitrile], the figure is 6 µM.
The same measure, in the same setting: then `Cc1cc(C#N)cc(C)c1Oc1ccc(-n2c(=O)[nH]c3cccnc32)cn1` [Example 38, 3,5-dimethyl-4-[[5-(2-oxo-1H-imidazo[4,5-b]pyridin-3-yl)-2-pyridyl]oxy]benzonitrile], with 5.2 µM.
On to `COc1cc(C)ccc1Oc1ccc(-n2c(=O)[nH]c3cccnc32)cn1` [Example 39, 3-[6-(2-methoxy-4-methyl-phenoxy)-3-pyridyl]-1H-imidazo[4,5-b]pyridin-2-one], for which the EC50 was found to be 5 µM.
As to `N#Cc1ccc(Oc2ccc(-n3c(=O)[nH]c4cccnc43)cn2)c(C(F)(F)F)c1` [Example 40, 4-[[5-(2-oxo-1H-imidazo[4,5-b]pyridin-3-yl)-2-pyridyl]oxy]-3-(trifluoromethyl)benzonitrile], the EC50 was found to be 6.6 µM.
As for `COc1cc(Oc2ccc(-n3c(=O)[nH]c4cccnc43)cn2)cnc1C` [Example 41, 3-[6-[(5-methoxy-6-methyl-3-pyridyl)oxy]-3-pyridyl]-1H-imidazo[4,5-b]pyridin-2-one], the concentration giving a half-maximal response (EC50) was 16.4 µM.
The same measure, in the same setting: as for `Cc1ccc(Oc2ccc(-n3c(=O)[nH]c4cnccc43)cn2)cc1Cl` [Example 42, 1-[6-(3-chloro-4-methyl-phenoxy)-3-pyridyl]-3H-imidazo[4,5-c]pyridin-2-one], the figure is 10 µM.
Still for that read-out and setting: then `COc1cc(Oc2ccc(-n3c(=O)[nH]c4cncnc43)cn2)ccc1C` [Example 43, 9-[6-(3-methoxy-4-methyl-phenoxy)-3-pyridyl]-7H-purin-8-one], with 7.4 µM; and `COc1cc(Oc2ncc(-n3c(=O)[nH]c4cnccc43)cc2F)ccc1C` [Example 44, 1-[5-fluoro-6-(3-methoxy-4-methyl-phenoxy)-3-pyridyl]-3H-imidazo[4,5-c]pyridin-2-one], with 2.9 µM; and `COc1cc(Oc2ncc(-n3c(=O)[nH]c4cnccc43)cc2C)ccc1C` [Example 45, 1-[5-methyl-6-(3-methoxy-4-methyl-phenoxy)-3-pyridyl]-3H-imidazo[4,5-c]pyridin-2-one], with 3.1 µM.
Still for that read-out and setting: then `COc1cc(Oc2ncc(-n3c(=O)[nH]c4cccnc43)cc2C)ccc1C` [Example 46, 3-[6-(3-methoxy-4-methyl-phenoxy)-5-methyl-3-pyridyl]-1H-imidazo[4,5-b]pyridin-2-one], with 4 µM.
Take `Cc1ccc(Oc2ccc(-n3c(=O)[nH]c4cnccc43)cn2)cc1OC(F)(F)F` [Example 47, 1-[6-[4-methyl-3-(trifluoromethoxy)phenoxy]-3-pyridyl]-3H-imidazo[4,5-c]pyridin-2-one]: the EC50 (HEK-293 cell line stably expressing Kv3.1, automated patch clamp, 10 min incubation, read-out: EC50 Kv3.1) turned out to be 2.4 µM.
For the molecule `COc1cc(Oc2ccc(-n3c(=O)[nH]c4nccnc43)cn2)ccc1C` [Example 48, 3-[6-(3-methoxy-4-methyl-phenoxy)-3-pyridyl]-1H-imidazo[4,5-b]pyrazin-2-one], the EC50 amounted to 3.9 µM.
`CCc1cc(Oc2ccc(-n3c(=O)[nH]c4cccnc43)cn2)ccc1C#N` [Example 49, 2-ethyl-4-[[5-(2-oxo-1H-imidazo[4,5-b]pyridin-3-yl)-2-pyridyl]oxy]benzonitrile]: the EC50 was 4.1 µM.
`Cc1ccc(Oc2ccc(-n3c(=O)[nH]c4cncnc43)cn2)cc1Cl` [Example 50, 9-[6-(3-chloro-4-methyl-phenoxy)-3-pyridyl]-7H-purin-8-one]: the EC50 turned out to be 12.2 µM.
Still for that read-out and setting: as for `CC(C)(C)c1cc(C#N)ccc1Oc1ccc(-n2c(=O)[nH]c3cccnc32)cc1F` [Example 51, 3-tert-butyl-4-[2-fluoro-4-(2-oxo-1H-imidazo[4,5-b]pyridin-3-yl)phenoxy]benzonitrile], the figure is 12.7 µM; as for `CC(C)c1cc(C#N)ccc1O[C@H]1C[C@H](n2c(=O)[nH]c3cccnc32)C1` [Example 52, 3-isopropyl-4-[3-(2-oxo-1H-imidazo[4,5-b]pyridin-3-yl)cyclobutoxy]benzonitrile], 17.4 µM.
As to `COc1cc(O[C@H]2C[C@H](n3c(=O)[nH]c4cnccc43)C2)ccc1C` [Example 53, 1-[3-(3-methoxy-4-methyl-phenoxy)cyclobutyl]-3H-imidazo[4,5-c]pyridin-2-one], the 50% effective concentration (EC50) came to 3.6 µM.
